How the values were obtained:
[1] = tested on: Adult male rats; experiment: Induction of penile erections in rats after intraperitoneal injection, 60 minute observation; type: in vivo; settings: IP injection of compound alone, 60 min observation, n=6
Method: Adult male rats were housed 2 to 3 per cage and were acclimated to the standard vivarium light cycle (12 hr. light, 12 hr. dark), rat chow and water for a least a week prior to testing. All experiments were performed between 9 a.m. and noon and rats were placed in cylindrical, clear plexiglass chambers during the 60 minute observation period. Mirrors were positioned below the chambers to improve viewing.
Observations began 5 minutes after an intraperitoneal injection of either saline or compound. Two observers counted the number of grooming motions, stretches, yawns and spontaneously occurring penile erections not elicited by genital grooming, and then recorded them as they occurred for a total of 60 minutes. Each observer recorded behaviors of 6 rats at the same time. The observers were unaware of the treatment and animals were tested once, with n=6 in each group. HP-228 was used as a positive control for penile erections.
By comparison, IP injection with agonist TRG 2411 #203 alone (shown below) increased the average number of erections observed to 2.7.

[2] = tested on: Adult male Sprague-Dawley rats; experiment: Dose-response of HP-228 for inducing erections in rats; type: in vivo; settings: rat, IP
Method: This example describes a dose-response correlation for using HP-228 to induce erections in rats.
(§1) Adult male Sprague-Dawley rats weighing 220 to 250 g or adult male C57/BL6 mice (Harlan Laboratories; Indianapolis Ind.) were injected intraperitoneally (IP) with 1 ml/kg body weight HP-228 solution or PBS as a negative control. Concentrations of HP-228 were 0.45, 0.9, 1.8, 3.6 and 7.2 mg/ml/kg (n=4 to 6 animals). The animals were allowed 10 minutes to acclimate to the surroundings before observation. The animals were then observed for 60 minutes for penile erections not induced by grooming. Yawning, stretching, grooming behaviors were also recorded.

[3] = tested on: C57/BL6 mice; experiment: Dose-response of HP-228 for inducing erections in mice; type: in vivo; settings: mouse, IP
Method: as §1
This example describes a dose-response correlation for using HP-228 to induce erections in mice (n=3 to 5). Age-matched C57/BL6 mice (Harlan Laboratories; Indianapolis Ind.) weighing 20 to 25 g were injected (100 μl/mouse) intraperitoneally essentially as described above and observed.

[4] = tested on: Sprague-Dawley rats; experiment: Association of MC-3 with erectile response: HP-228 IP with MC-3-specific antagonist ICV in rats; type: in vivo; settings: rat, HP-228 1.8 mg/kg IP, PBS ICV (no MC-3 antagonist), n=5
Method: Sprague-Dawley rats (n=5) received 1.8 mg/kg HP-228 or PBS via IP injection. The rats also received via ICV injection a dose of PBS or MC-3-specific antagonist at 10 μg/5 μl. […] After administration, the rats were observed as described above. All rats received an ICV injection followed by an IP injection 5 to 10 minutes later.
In the negative control rats, receiving only PBS, 0.3 erections per hour were observed. In the positive control rats, receiving HP-228 but no MC-3 antagonist, 3.8 erections per hour were observed.

[5] = tested on: male Sprague-Dawley rats; experiment: Effect of oxytocin receptor antagonist vasotocin on erectile effects in rats; type: in vivo; settings: rat
From the text: (§2) In both examples, male Sprague-Dawley rats, about 200 to 225 g, were acclimated for 5 days in a reverse light:dark cycle room (dark 10 a.m. to 10 p.m.) before being aseptically ICV cannulated. Rats with indwelling ICV cannulae were housed one per cage. After surgery, 4 days were allowed for recovery and 10 days total were allowed for adaptation to the light cycle. Rats were caged individually after surgery and body weights at the time of treatment averaged 250 g. Otherwise, the procedure is essentially the same as in Example II.
Treatment was between 10 a.m. and 1 p.m. […] Vasotocin (Peninsula Laboratories, San Carlos Calif.) was administered ICV at 100 ng/rat. Oxytocin (Sigma, St. Louis Mo.) was administered ICV at 30 ng/rat (10 μl/rat PBS). Ten minutes later, IP injections of HP-228 or vehicle were given. HP-228 was administered IP at 2 mg/kg in 3 ml/kg PBS. One group of animals received ICV injections of vasotocin and oxytocin ICV injections of 5 μl/rat each at double concentrations for a total of 10 μl injected ICV. In this group, the rats received vasotocin first, followed by oxytocin.

[6] = tested on: male Sprague-Dawley rats; experiment: Effect of dopamine receptor antagonist sulpiride on erectile effects in rats; type: in vivo; settings: rat
From the text: as §2
Treatment was between 9:30 a.m. and noon. Each animal received an initial IP injection of vehicle (3 ml/kg PBS) or sulpiride. Sulpiride (Sigma) was administered IP at 50 mg/kg (6 ml/kg IP). Ten minutes later, the animals received a final IP injection of HP-228 or vehicle or a SC injection of apomorphine. HP-228 was administered IP at 2 mg/kg in 3 ml/kg PBS. Apomorphine (Sigma) was administered SC at 0.1 mg/kg (1 ml/kg sterile water).

[7] = tested on: Rats; experiment: HP-228-mediated erectile response with MC-3 antagonist TRG 6601 #15—2 ICV in rats; type: in vivo; settings: rat, PBS ICV, HP-228 2 mg/kg/ml IP
Method: Rats were obtained and cannulated essentially as described in Example VII. Rats received a 10 μl injection ICV containing antagonist “TRG 6601 #15—2” or vehicle alone. The compound was administered as a 1 mg/ml solution in 5% EtOH/PBS at a dose of […]. Five minutes later, the rats were injected IP with either PBS (1 ml/kg) or HP-228 (2 mg/kg/ml). The animals were observed as in Example VII. Erections per hour and rate of animals responding are shown: […]

[8] = tested on: human subjects; settings: pilot phase I clinical studies (Dorr et al. 1996; Wessells et al. 1998); cited from earlier work
[9] = single agent plus PBS: oxytocin 30 ng/rat ICV, HP-228 2 mg/kg IP, vasotocin 100 ng/rat ICV
[10] = single agent plus PBS: apomorphine 0.1 mg/kg SC, HP-228 2 mg/kg IP, sulpiride 50 mg/kg IP

## Ac-Nle-Gln-His-(D)Phe-Arg-(D)Trp-Gly-NH2 [HP-228]
[1]
  average erections observed per rat per hour: 4.8 erections per rat per hour
[2]; 0.45 mg/ml/kg HP-228, 60 min observation
  avg. erections observed/hour: 2.80 erections/hour
[2]; 0.9 mg/ml/kg HP-228, 60 min observation
  avg. erections observed/hour: 2.60 erections/hour
[2]; 1.8 mg/ml/kg HP-228, 60 min observation
  avg. erections observed/hour: 3.67 erections/hour
[2]; 3.6 mg/ml/kg HP-228, 60 min observation
  avg. erections observed/hour: 7.00 erections/hour
[2]; 7.2 mg/ml/kg HP-228, 60 min observation
  avg. erections observed/hour: 5.75 erections/hour
[3]; 25 μg/mouse HP-228
  avg. erections observed/hour: 3.00 erections/hour
[3]; 50 μg/mouse HP-228
  avg. erections observed/hour: 6.67 erections/hour
[3]; 100 μg/mouse HP-228
  avg. erections observed/hour: 5.33 erections/hour
[3]; 250 μg/mouse HP-228
  avg. erections observed/hour: 3.00 erections/hour
[4]
  erections per hour: 3.8 erections per hour
[5]; oxytocin and HP-228 groups
  response rate, % of animals: 88%-100%
[5]; [9]
  erections per hour: 4.9 erections per hour
  responder rate of animals (rats responding out of rats): 7/8
[6]; apomorphine and HP-228 groups
  response rate, % of animals: 100%
[6]; [10]
  erections per hour: 7.3 erections per hour
  rate of animals responding: 5/5
[7]
  erections per hour: 4.7 erections per hour
  rate of animals responding: 6/6

## MELANOTAN-II
[8]
  penile erections in human subjects: cause penile erections

Source: patent US6534503B1, “Melanocortin receptor-3 ligands to treat sexual dysfunction” (Lion Bioscience AG, priority 1998, dated 2003)
